What follows are molecules tested against SMYD3 (Homo sapiens (Human), UniProt Q9H7B4) (assay: SMYD3 biochemical assay (SPA, 3H-SAM methylation of MEKK2 protein substrate)). Conditions: read-out: SMYD3 Biochem IC50 (μM)*.
Summary of the method: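 Native full-length human SMYD3 (E. coli-expressed, tags removed) was preincubated with compound for 30 min at room temperature in 25 mM Tris-Cl pH 8.0, 1 mM TCEP, 0.005% BSG, 0.005% Tween 20. Reaction was started with 3H-SAM plus GST-MEKK2, quenched with 100 uM unlabeled SAM, and read by SPA scintillation counting.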
`C[C@@H]1CC(NC(=O)c2cc(C3CC3)on2)CCN1C(=O)[C@@H]1CC[C@H](N)C1` (stereo partly drawn) [compound 96, N-((2R)-1-((1R,3S)-3-aminocyclopentane-1-carbonyl)-2-methylpiperidin-4-yl)-5-cyclopropylisoxazole-3-carboxamide] was tested, and the IC50 was 1.9 µM. `C[C@@H]1CC(NC(=O)c2cc(C3CC3)on2)CCN1C(=O)[C@H]1C[C@H](N)C1` (stereo partly drawn) [compound 97, N-((2R)-1-((1r,3R)-3-aminocyclobutane-1-carbonyl)-2-methylpiperidin-4-yl)-5-cyclopropylisoxazole-3-carboxamide] was tested, and the IC50 was 0.779 µM. With `CCCC1CC(NC(=O)c2cc(C3CC3)on2)CCN1C(=O)[C@H]1CC[C@H](N)CC1` (stereo partly drawn) [compound 98, N-(1-((1r,4r)-4-aminocyclohexane-1-carbonyl)-2-propylpiperidin-4-yl)-5-cyclopropylisoxazole-3-carboxamide] the IC50 was 0.655 µM. In the case of `N[C@H]1CC[C@H](C(=O)N2CCC(NC(=O)c3cc(C4CC4)on3)CC23CCC3)CC1` (stereo partly drawn) [compound 100, N-(5-((1r,4r)-4-aminocyclohexane-1-carbonyl)-5-azaspiro[3.5]nonan-8-yl)-5-cyclopropylisoxazole-3-carboxamide], the IC50 is reported as 2.2 µM. `N[C@H]1CC[C@H](C(=O)N2[C@@H]3CC[C@H]2C[C@H](NC(=O)c2cc(C4CC4)on2)C3)CC1` [compound 101, N-((1R,3S,5S)-8-((1r,4R)-4-aminocyclohexane-1-carbonyl)-8-azabicyclo[3.2.1]octan-3-yl)-5-cyclopropylisoxazole-3-carboxamide] was tested, and the IC50 was over 10 µM. `C[C@H]1CC(NC(=O)c2cc(C3CC3)on2)CCN1C(=O)CC(C)(C)CN` (stereo partly drawn) [compound 103, N-((2S)-1-(4-amino-3,3-dimethylbutanoyl)-2-methylpiperidin-4-yl)-5-cyclopropylisoxazole-3-carboxamide] was tested, and the IC50 was 1.45 µM. Molecule `C[C@@H]1CC(NC(=O)c2cc(C3CC3)on2)CCN1C(=O)CC(C)(C)CN` (stereo partly drawn) [compound 104, N-((2R)-1-(4-amino-3,3-dimethylbutanoyl)-2-methylpiperidin-4-yl)-5-cyclopropylisoxazole-3-carboxamide] has an IC50 of 0.566 µM. `C[C@H]1CC(NC(=O)c2cc(C3CC3)on2)CCN1C(=O)[C@H]1CC[C@H](N(C)C)CC1` (stereo partly drawn) [compound 105, 5-cyclopropyl-N-((2S)-1-((1r,4S)-4-(dimethylamino)cyclohexane-1-carbonyl)-2-methylpiperidin-4-yl)isoxazole-3-carboxamide] gave an IC50 of 20 µM. `C[C@H]1CC(NC(=O)c2cc(C3CC3)on2)CCN1C(=O)[C@H]1CCC[C@H](N)C1` (stereo partly drawn) [compound 106, N-((2S)-1-((1S,3S)-3-aminocyclohexane-1-carbonyl)-2-methylpiperidin-4-yl)-5-cyclopropylisoxazole-3-carboxamide] showed an IC50 of 3.52 µM. With `C[C@@H]1CC(NC(=O)c2cc(C3CC3)on2)CCN1C(=O)C1CCCNC1` (stereo partly drawn) [compound 107, 5-cyclopropyl-N-((2R)-2-methyl-1-(piperidine-3-carbonyl)piperidin-4-yl)isoxazole-3-carboxamide] the IC50 was 2.52 µM. `N[C@H]1CC[C@H](C(=O)N2CCC(NC(=O)c3cc(C4CC4)on3)CC2Cc2ccccc2)CC1` (stereo partly drawn) [compound 108, N-(1-((1r,4r)-4-aminocyclohexane-1-carbonyl)-2-benzylpiperidin-4-yl)-5-cyclopropylisoxazole-3-carboxamide] was tested, and the IC50 was 1.42 µM. In the case of `NC[C@H](Cc1ccc(O)c(C(F)(F)F)c1)C(=O)N1CCC(NC(=O)c2cc(C3CC3)on2)CC1` [compound 111, (S)-N-(1-(3-amino-2-(4-hydroxy-3-(trifluoromethyl)benzyl)propanoyl)piperidin-4-yl)-5-cyclopropylisoxazole-3-carboxamide], the IC50 is reported as 2.47 µM. `CC(C)c1cc(C[C@H](CN)C(=O)N2CCC(NC(=O)c3cc(C4CC4)on3)CC2)ccc1O` [compound 112, (R)-N-(1-(3-amino-2-(4-hydroxy-3-isopropylbenzyl)propanoyl)piperidin-4-yl)-5-cyclopropylisoxazole-3-carboxamide] showed an IC50 of 1.09 µM. For `C[C@@H]1CC(NC(=O)c2cc(C3CC3)on2)CCN1C[C@H]1CC[C@H](N)CC1` (stereo partly drawn) [compound 113, N-((2R)-1-(((1r,4R)-4-aminocyclohexyl)methyl)-2-methylpiperidin-4-yl)-5-cyclopropylisoxazole-3-carboxamide], the IC50 was 4.59 µM. `CC1(C)CC(NC(=O)c2cc(C3CC3)on2)CCN1C(=O)[C@H]1CC[C@H](N)CC1` (stereo partly drawn) [compound 114, N-(1-((1r,4r)-4-aminocyclohexane-1-carbonyl)-2,2-dimethylpiperidin-4-yl)-5-cyclopropylisoxazole-3-carboxamide] was tested, and the IC50 was 1.31 µM. Work on `C[C@H]1CC(NC(=O)c2cc(C3CC3)on2)CCN1C(=O)CC1(C)CCNCC1` (stereo partly drawn) [compound 115, 5-cyclopropyl-N-((2S)-2-methyl-1-(2-(4-methylpiperidin-4-yl)acetyl)piperidin-4-yl)isoxazole-3-carboxamide] yielded an IC50 of 0.472 µM. In the case of `C[C@@H]1CC(NC(=O)c2cc(C3CC3)on2)CCN1C(=O)CC1(C)CCNCC1` (stereo partly drawn) [compound 116, 5-cyclopropyl-N-((2R)-2-methyl-1-(2-(4-methylpiperidin-4-yl)acetyl)piperidin-4-yl)isoxazole-3-carboxamide], the IC50 is reported as 2.91 µM. `C[C@H]1CC(NC(=O)c2cc(C3CC3)on2)CCN1C(=O)[C@H]1CCC[C@@H](N)C1` (stereo partly drawn) [compound 117, N-((2S)-1-((1S,3R)-3-aminocyclohexane-1-carbonyl)-2-methylpiperidin-4-yl)-5-cyclopropylisoxazole-3-carboxamide] showed an IC50 of 5.6 µM. In the case of `CCOC(=O)C1CN(C(=O)CC2CCNCC2)CCC1NC(=O)c1cc(C2CC2)on1` (stereo not drawn) [compound 119, ethyl 4-(5-cyclopropylisoxazole-3-carboxamido)-1-(2-(piperidin-4-yl)acetyl)piperidine-3-carboxylate], the IC50 is reported as 2.99 µM. In the case of `NC[C@@H](Cc1ccc(O)c(C(F)(F)F)c1)C(=O)N1CCC(NC(=O)c2cc(C3CC3)on2)CC1` [compound 120, (R)-N-(1-(3-amino-2-(4-hydroxy-3-(trifluoromethyl)benzyl)propanoyl)piperidin-4-yl)-5-cyclopropylisoxazole-3-carboxamide], the IC50 is reported as 0.0816 µM. With `C[C@@H]1CC(NC(=O)c2cc(C3CC3)on2)CCN1C(=O)N1CCC(N)CC1` (stereo partly drawn) [compound 122, N-((2R)-1-(4-aminopiperidine-1-carbonyl)-2-methylpiperidin-4-yl)-5-cyclopropylisoxazole-3-carboxamide] the IC50 was 0.851 µM. `N[C@H]1CC[C@H](C(=O)N2CC3CC2CC3NC(=O)c2cc(C3CC3)on2)CC1` (stereo partly drawn) [compound 123, N-(2-((1r,4r)-4-aminocyclohexane-1-carbonyl)-2-azabicyclo[2.2.1]heptan-5-yl)-5-cyclopropylisoxazole-3-carboxamide] gave an IC50 of 1.17 µM. Molecule `O=C(NC1CC2CCCC(C1)N2C(=O)CC1CCNCC1)c1cc(C2CC2)on1` (stereo not drawn) [compound 125, 5-cyclopropyl-N-(9-(2-(piperidin-4-yl)acetyl)-9-azabicyclo[3.3.1]nonan-3-yl)isoxazole-3-carboxamide] has an IC50 of 7.76 µM. `O=C(N[C@@H]1C[C@H]2CC[C@@H](C1)N2C(=O)CC1CCNCC1)c1cc(C2CC2)on1` [compound 126, 5-cyclopropyl-N-((1R,3s,5S)-8-(2-(piperidin-4-yl)acetyl)-8-azabicyclo[3.2.1]octan-3-yl)isoxazole-3-carboxamide] showed an IC50 of 9.86 µM. Molecule `O=C(N[C@H]1C[C@H]2CC[C@@H](C1)N2C(=O)CC1CCNCC1)c1cc(C2CC2)on1` [compound 127, 5-cyclopropyl-N-((1R,3r,5S)-8-(2-(piperidin-4-yl)acetyl)-8-azabicyclo[3.2.1]octan-3-yl)isoxazole-3-carboxamide] has an IC50 of 1.28 µM. `C[C@H]1CC(NC(=O)c2cc(C3CC3)on2)CCN1C(=O)CC1CC2CCC(C1)N2` (stereo partly drawn) [compound 128, N-((2S)-1-(2-(8-azabicyclo[3.2.1]octan-3-yl)acetyl)-2-methylpiperidin-4-yl)-5-cyclopropylisoxazole-3-carboxamide] gave an IC50 of 0.844 µM. `C[C@@H]1CC(NC(=O)c2cc(C3CC3)on2)CCN1C(=O)CC1CC2CCC(C1)N2` (stereo partly drawn) [compound 129, N-((2R)-1-(2-(8-azabicyclo[3.2.1]octan-3-yl)acetyl)-2-methylpiperidin-4-yl)-5-cyclopropylisoxazole-3-carboxamide] was tested, and the IC50 was 0.595 µM. Molecule `C[C@H]1CC(NC(=O)c2cc(C3CC3)on2)CCN1C(=O)C1CC2(CC(N)C2)C1` (stereo partly drawn) [compound 130, N-((2S)-1-(6-aminospiro[3.3]heptane-2-carbonyl)-2-methylpiperidin-4-yl)-5-cyclopropylisoxazole-3-carboxamide] has an IC50 of 1.3 µM. With `C[C@H]1CC(NC(=O)c2cc(C3CC3)on2)CCN1C(=O)[C@H]1CC[C@H](N)CO1` (stereo partly drawn) [compound 131, N-((2S)-1-((2R,5S)-5-aminotetrahydro-2H-pyran-2-carbonyl)-2-methylpiperidin-4-yl)-5-cyclopropylisoxazole-3-carboxamide] the IC50 was 2.08 µM. In the case of `C[C@H]1CC(NC(=O)c2cc(C3CC3)on2)CCN1C(=O)C1CCCNC1` (stereo partly drawn) [compound 132, 5-cyclopropyl-N-((2S)-2-methyl-1-(piperidine-3-carbonyl)piperidin-4-yl)isoxazole-3-carboxamide], the IC50 is reported as 5.55 µM. With `C[C@H]1CC(NC(=O)c2cc(C3CC3)on2)CCN1C(=O)C[C@H](O)CCN` (stereo partly drawn) [compound 133, N-((2S)-1-((R)-5-amino-3-hydroxypentanoyl)-2-methylpiperidin-4-yl)-5-cyclopropylisoxazole-3-carboxamide] the IC50 was 6.24 µM. Molecule `C[C@@H]1CC(NC(=O)c2cc(C3CC3)on2)CCN1C(=O)C[C@H](O)CCN` (stereo partly drawn) [compound 134, N-((2R)-1-((R)-5-amino-3-hydroxypentanoyl)-2-methylpiperidin-4-yl)-5-cyclopropylisoxazole-3-carboxamide] has an IC50 of 1.86 µM. `C[C@@H]1CC(NC(=O)c2cc(C3CC3)on2)CCN1C(=O)C1CNCC(O)C1` (stereo partly drawn) [compound 135, 5-cyclopropyl-N-((2R)-1-(5-hydroxypiperidine-3-carbonyl)-2-methylpiperidin-4-yl)isoxazole-3-carboxamide] was tested, and the IC50 was 2.49 µM.

— patent publication US10577363B2, “Substituted piperidine compounds” (EPIZYME, INC., priority 2014, dated 2020)
